Read-outs that look alike come from different tables or passages of the source.
How the values were obtained:
EGFR (C797S L858R) = molecular target: T1, EGFR (C797S L858R) (Homo sapiens, UniProt P00533, C797S/L858R); experiment: Inhibition of EGFR (C797S L858R) biochemical enzymatic activity (HTRF); details: 1 mM ATP
T1 construct: purchased signalchem
How it was run: (§1)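 Each enzyme was first added to plates holding compound. The reaction was then started with ATP (1 mM) and peptide substrate (1 μM). It was stopped after 1 h at room temperature with EDTA detection reagents and read at 615/665 nm to derive IC50s.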

EGFR L858R = molecular target: T2, EGFR L858R (Homo sapiens, UniProt P00533, L858R); experiment: Inhibition of EGFR L858R biochemical enzymatic activity (HTRF); details: 1 mM ATP
T2 construct: purchased Carna Bio
T2 sequence (P00533 25-1210 L858R): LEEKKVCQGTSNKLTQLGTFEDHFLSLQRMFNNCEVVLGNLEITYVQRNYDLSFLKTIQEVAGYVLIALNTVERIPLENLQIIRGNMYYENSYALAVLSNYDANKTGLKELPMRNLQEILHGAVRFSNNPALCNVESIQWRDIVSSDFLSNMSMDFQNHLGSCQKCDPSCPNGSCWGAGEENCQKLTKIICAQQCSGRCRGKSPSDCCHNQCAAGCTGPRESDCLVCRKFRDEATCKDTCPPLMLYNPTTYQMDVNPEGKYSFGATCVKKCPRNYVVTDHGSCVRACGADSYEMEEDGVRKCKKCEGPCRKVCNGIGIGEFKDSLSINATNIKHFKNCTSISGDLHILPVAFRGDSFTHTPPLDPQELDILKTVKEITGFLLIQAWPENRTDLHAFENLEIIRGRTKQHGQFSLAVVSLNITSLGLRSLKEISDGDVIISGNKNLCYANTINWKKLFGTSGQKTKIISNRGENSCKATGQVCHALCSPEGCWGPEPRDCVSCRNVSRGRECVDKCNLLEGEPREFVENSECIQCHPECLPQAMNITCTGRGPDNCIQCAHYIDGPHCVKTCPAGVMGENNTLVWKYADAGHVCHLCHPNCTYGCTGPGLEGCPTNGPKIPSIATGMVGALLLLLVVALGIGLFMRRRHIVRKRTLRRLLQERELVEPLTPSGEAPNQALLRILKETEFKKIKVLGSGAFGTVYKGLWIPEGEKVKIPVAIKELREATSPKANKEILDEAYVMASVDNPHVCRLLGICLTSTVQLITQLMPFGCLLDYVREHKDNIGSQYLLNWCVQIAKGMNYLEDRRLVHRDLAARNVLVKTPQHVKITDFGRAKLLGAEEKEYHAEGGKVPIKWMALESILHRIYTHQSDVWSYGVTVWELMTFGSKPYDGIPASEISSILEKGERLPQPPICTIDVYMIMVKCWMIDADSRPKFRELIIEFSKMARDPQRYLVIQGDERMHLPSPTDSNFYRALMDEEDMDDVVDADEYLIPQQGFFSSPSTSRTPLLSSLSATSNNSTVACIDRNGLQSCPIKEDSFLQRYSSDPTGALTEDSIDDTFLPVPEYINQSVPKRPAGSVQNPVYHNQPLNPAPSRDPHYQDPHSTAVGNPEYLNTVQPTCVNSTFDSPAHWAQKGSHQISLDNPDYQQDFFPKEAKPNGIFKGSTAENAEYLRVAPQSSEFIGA
How it was run: as §1

EGFR L858R/T790M = molecular target: T3, EGFR L858R/T790M (Homo sapiens, UniProt P00533, L858R/T790M); experiment: Inhibition of EGFR L858R/T790M biochemical enzymatic activity (HTRF); details: 1 mM ATP
T3 construct: purchased Carna Bio
How it was run: as §1

EGFR wild type = molecular target: T4, EGFR wild type (Homo sapiens, UniProt P00533); experiment: Inhibition of EGFR wild type biochemical enzymatic activity (HTRF); details: 1 mM ATP
T4 construct: purchased Carna Bio
How it was run: as §1

EGFR[T790M/C797S/L858R] = molecular target: T5, EGFR[T790M/C797S/L858R] (Homo sapiens, UniProt P00533, C797S/L858R/T790M); experiment: Inhibition of EGFR[T790M/C797S/L858R] biochemical enzymatic activity (HTRF); details: 1 mM ATP
T5 construct: purchased Carna Bio
T5 sequence (P00533 25-1210 T790M/C797S/L858R): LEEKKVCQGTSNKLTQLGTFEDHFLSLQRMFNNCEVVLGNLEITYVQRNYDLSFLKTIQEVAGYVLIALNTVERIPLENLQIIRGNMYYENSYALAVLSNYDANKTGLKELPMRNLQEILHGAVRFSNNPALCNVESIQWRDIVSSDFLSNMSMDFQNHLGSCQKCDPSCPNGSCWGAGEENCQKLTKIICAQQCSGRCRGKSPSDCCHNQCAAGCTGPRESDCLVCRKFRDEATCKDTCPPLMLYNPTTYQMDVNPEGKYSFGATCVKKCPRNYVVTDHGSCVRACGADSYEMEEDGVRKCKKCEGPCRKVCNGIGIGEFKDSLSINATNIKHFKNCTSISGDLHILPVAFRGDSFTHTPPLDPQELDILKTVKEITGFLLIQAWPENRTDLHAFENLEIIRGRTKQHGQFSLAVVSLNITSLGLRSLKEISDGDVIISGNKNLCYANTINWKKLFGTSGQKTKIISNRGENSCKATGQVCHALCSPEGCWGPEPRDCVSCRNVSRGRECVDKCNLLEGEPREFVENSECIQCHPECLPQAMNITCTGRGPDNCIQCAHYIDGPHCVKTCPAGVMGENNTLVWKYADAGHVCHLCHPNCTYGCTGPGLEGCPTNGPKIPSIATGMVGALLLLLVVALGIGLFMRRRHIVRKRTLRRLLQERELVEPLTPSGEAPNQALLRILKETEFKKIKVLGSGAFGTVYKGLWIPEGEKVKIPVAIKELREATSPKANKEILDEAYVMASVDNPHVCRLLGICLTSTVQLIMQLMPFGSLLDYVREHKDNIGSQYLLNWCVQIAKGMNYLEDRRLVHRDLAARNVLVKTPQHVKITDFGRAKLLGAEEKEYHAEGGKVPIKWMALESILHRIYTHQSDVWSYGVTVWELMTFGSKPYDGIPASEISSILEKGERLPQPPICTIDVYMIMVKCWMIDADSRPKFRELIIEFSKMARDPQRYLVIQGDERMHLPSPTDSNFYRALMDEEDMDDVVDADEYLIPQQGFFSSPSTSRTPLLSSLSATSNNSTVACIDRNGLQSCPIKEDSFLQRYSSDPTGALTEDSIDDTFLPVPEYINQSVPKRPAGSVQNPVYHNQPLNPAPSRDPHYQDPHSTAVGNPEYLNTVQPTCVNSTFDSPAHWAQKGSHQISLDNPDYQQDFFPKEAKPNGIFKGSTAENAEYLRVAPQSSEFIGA
How it was run: as §1

PC-9 = experiment: Cell proliferation assay, PC-9 cells (CellTiter-Glo, 72 hours); type: cell-based; details: PC9 cells
How it was run: (§2)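 Cells are exposed to graded compound concentrations after overnight plating, using 500 PC-9 or 5000 Ba/F3 per well. Baseline-subtracted viability is compared with vehicle to give percent proliferation, then GI50.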

[1] = molecular target: T6, EGFR[T790M/C797S/d746-750] (Homo sapiens, UniProt P00533, C797S/DEL746-750/T790M); experiment: Inhibition of EGFR[T790M/C797S/d746-750] biochemical enzymatic activity (HTRF)
T6 construct: purchased Carna Bio
T6 sequence (P00533 with tags, fused parts or gaps DEL746-750/T790M/C797S limits assumed): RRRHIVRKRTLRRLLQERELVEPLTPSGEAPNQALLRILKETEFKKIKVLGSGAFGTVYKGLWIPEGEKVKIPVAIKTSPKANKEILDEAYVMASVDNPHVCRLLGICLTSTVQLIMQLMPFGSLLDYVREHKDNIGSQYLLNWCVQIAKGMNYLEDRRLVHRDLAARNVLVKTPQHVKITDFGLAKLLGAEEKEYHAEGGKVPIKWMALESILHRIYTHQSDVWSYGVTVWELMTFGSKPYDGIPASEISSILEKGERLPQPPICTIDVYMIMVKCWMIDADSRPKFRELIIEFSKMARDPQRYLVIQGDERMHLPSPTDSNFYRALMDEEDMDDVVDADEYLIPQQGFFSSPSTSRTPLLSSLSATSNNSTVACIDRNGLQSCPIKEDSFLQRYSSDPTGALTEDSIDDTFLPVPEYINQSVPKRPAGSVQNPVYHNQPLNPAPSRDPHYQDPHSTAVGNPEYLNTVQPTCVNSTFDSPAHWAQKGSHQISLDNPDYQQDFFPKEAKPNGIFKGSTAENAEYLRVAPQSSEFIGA
How it was run: as §1

EGFR Exon19Del/T790M = molecular target: T7, EGFR Exon19Del/T790M (Homo sapiens, UniProt P00533, DEL746-750/T790M); experiment: Inhibition of EGFR Exon19Del/T790M biochemical enzymatic activity (HTRF); details: 1 mM ATP
T7 construct: purchased Carna Bio
T7 sequence (P00533 with tags, fused parts or gaps DEL746-750/T790M limits assumed): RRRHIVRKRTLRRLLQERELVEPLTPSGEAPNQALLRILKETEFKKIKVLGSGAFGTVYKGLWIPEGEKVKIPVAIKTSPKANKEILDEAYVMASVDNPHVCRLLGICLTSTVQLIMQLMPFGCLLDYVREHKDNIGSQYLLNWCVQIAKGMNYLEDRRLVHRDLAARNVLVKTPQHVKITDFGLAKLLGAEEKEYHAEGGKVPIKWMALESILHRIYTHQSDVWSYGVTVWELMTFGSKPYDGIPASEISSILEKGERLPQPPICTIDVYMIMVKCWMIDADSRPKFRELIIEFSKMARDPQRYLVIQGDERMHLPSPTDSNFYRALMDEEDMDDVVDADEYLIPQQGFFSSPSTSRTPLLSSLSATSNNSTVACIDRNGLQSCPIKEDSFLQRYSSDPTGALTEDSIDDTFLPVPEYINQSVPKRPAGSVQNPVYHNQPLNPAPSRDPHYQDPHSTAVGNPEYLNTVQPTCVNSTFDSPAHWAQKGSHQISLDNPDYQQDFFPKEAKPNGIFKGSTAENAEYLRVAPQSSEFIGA
How it was run: as §1

EGFR Exon19Del = molecular target: T8, EGFR Exon19Del (Homo sapiens, UniProt P00533, DEL746-750); experiment: Inhibition of EGFR Exon19Del biochemical enzymatic activity (HTRF); details: read-out: IC50 @Del19
T8 construct: purchased Carna Bio
T8 sequence (P00533 with tags, fused parts or gaps DEL746-750 limits assumed): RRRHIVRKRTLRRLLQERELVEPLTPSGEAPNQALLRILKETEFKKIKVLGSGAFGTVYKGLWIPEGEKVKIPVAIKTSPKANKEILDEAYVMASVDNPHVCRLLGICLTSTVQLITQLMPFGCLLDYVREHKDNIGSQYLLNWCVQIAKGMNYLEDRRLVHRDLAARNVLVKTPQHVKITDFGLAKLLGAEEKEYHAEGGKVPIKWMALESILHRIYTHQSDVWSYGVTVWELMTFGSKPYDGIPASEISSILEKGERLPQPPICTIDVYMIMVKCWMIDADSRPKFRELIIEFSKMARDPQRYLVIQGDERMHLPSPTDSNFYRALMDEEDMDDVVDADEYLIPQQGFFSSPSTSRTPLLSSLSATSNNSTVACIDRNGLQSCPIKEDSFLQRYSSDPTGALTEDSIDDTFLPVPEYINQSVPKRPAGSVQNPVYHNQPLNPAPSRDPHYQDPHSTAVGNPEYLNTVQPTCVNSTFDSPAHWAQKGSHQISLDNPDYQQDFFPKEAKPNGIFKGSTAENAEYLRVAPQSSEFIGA
How it was run: as §1

[2] = test system: Ba/F3 cells expressing EGFR mutations; experiment: Cell proliferation assay, Ba/F3 cells expressing EGFR mutations (CellTiter-Glo, 72 hours); type: cell-based
How it was run: as §2

EGFR (d746-750 C797S) = molecular target: T9, EGFR (d746-750 C797S) (Homo sapiens, UniProt P00533, C797S/DEL746-750); experiment: Inhibition of EGFR (d746-750 C797S) biochemical enzymatic activity (HTRF); details: 1 mM ATP
T9 construct: purchased signalchem
T9 sequence (P00533 with tags, fused parts or gaps DEL746-750/C797S limits assumed): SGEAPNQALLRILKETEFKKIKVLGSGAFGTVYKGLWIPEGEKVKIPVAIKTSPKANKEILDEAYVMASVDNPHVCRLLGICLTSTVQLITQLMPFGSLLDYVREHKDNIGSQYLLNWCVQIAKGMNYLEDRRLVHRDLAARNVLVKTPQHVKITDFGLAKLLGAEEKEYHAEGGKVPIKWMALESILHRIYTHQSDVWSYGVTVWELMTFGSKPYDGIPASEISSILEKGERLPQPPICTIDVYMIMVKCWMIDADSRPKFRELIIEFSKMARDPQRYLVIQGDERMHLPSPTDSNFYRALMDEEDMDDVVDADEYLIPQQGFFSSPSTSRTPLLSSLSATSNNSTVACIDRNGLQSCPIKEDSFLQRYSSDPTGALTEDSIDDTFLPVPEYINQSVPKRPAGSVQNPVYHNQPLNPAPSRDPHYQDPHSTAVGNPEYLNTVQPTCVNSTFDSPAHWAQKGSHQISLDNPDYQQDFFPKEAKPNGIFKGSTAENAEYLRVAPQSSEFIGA
How it was run: as §1

[3] = EGFR L858-C797S, 1 h, room temperature, read-out: IC50 (nM) @L858-C797S
[4] = 1 h, room temperature, read-out: IC50 (nM) @L858R
[5] = EGFR L858R-T790M, 1 h, room temperature, read-out: IC50 (nM) @L858R-T790M
[6] = EGFR WT, 1 h, room temperature, read-out: IC50 (nM) @WT
[7] = EGFR T790M-C797S-L858R, 1 h, room temperature, read-out: IC50 (nM) @T790M- C797S - L858R
[8] = CellTiter-Glo, read-out: PC9 GI50
[9] = EGFR T790M-C797S-Del19, 1 mM ATP, 1 h, room temperature, read-out: IC50 (nM) @T790M - C797S - Del19
[10] = EGFR Del19-T790M, 1 h, room temperature, read-out: IC50 (nM) @Del19-T790M
[11] = EGFR Del19, 1 mM ATP, 1 h, room temperature
[12] = BaF3 cells, EGFR DEL19-C797S, CellTiter-Glo, read-out: DEL19-C797S/BaF3 GI50
[13] = BaF3 cells, EGFR DEL19-T790-C797S, CellTiter-Glo, read-out: DEL19-T790-C797S/BaF3 GI50
[14] = BaF3 cells, EGFR L858R, CellTiter-Glo, read-out: L858R/BaF3 GI50
[15] = BaF3 cells, EGFR L858R-C797S, CellTiter-Glo, read-out: L858R-C797S/BaF3 GI50
[16] = BaF3 cells, EGFR L858R-T790-C797S, CellTiter-Glo, read-out: L858R-T790-C797S/BaF3 GI50
[17] = BaF3 cells, EGFR L858R-T790M, CellTiter-Glo, read-out: L858R-T790M/BaF3 GI50
[18] = EGFR DEL19-T790M, CellTiter-Glo, read-out: DEL19-T790M GI50
[19] = EGFR Del19-C797S, 1 h, room temperature, read-out: IC50 (nM) @Del19-C797S
[20] = EGFR (C797S L858R), 1 h at room temperature, read-out: IC50 @L858-C797S
[21] = 1 h at room temperature, read-out: IC50 @L858R
[22] = EGFR L858R/T790M, 1 h at room temperature, read-out: IC50 @L858R-T790M
[23] = EGFR wild type, 1 h at room temperature, read-out: IC50 @WT
[24] = EGFR[T790M/C797S/L858R], 1 h at room temperature, read-out: IC50 @T790M- C797S - L858R
[25] = EGFR[T790M/C797S/d746-750], 1 mM ATP, 1 h at room temperature, read-out: IC50 @T790M - C797S - Del19
[26] = EGFR Exon19Del/T790M, 1 h at room temperature, read-out: IC50 @Del19-T790M
[27] = EGFR Exon19Del, 1 mM ATP, 1 h at room temperature
[28] = BaF3 cells, EGFR DEL19 - C797S, read-out: GI50 DEL19 - C797S/BaF3
[29] = BaF3 cells, EGFR DEL19 - T790-C797S, read-out: GI50 DEL19 - T790-C797S/BaF3
[30] = BaF3 cells, EGFR L858R - C797S, read-out: GI50 L858R - C797S/BaF3
[31] = BaF3 cells, EGFR L858R - T790-C797S, read-out: GI50 L858R - T790-C797S/BaF3
[32] = BaF3 cells, EGFR L858R - T790M, read-out: GI50 L858R - T790M/BaF3
[33] = BaF3 cells, EGFR L858R, read-out: GI50 L858R/BaF3
[34] = EGFR DEL19 - T790M, read-out: GI50 DEL19 - T790M
[35] = EGFR (d746-750 C797S), 1 h at room temperature, read-out: IC50 @Del19-C797S

Row | SMILES | IC50 (EGFR (C797S L858R); [3]) [nM] | IC50 (EGFR L858R; [4]) [nM] | IC50 (EGFR L858R/T790M; [5]) [nM] | IC50 (EGFR (C797S L858R); [20]) [nM] | IC50 (EGFR L858R; [21]) [nM] | IC50 (EGFR L858R/T790M; [22]) [nM] | IC50 (EGFR wild type; [23]) [nM] | IC50 (EGFR[T790M/C797S/L858R]; [24]) [nM] | GI50 (PC-9; read-out: GI50 PC9) [nM] | IC50 [1, 25] [nM] | IC50 (EGFR Exon19Del/T790M; [26]) [nM] | IC50 (EGFR Exon19Del; [27]) [nM] | GI50 [2, 28] [nM] | GI50 [2, 29] [nM] | GI50 [2, 30] [nM] | GI50 [2, 31] [nM] | GI50 [2, 32] [nM] | GI50 [2, 33] [nM] | GI50 [2, 34] [nM] | IC50 (EGFR (d746-750 C797S); [35]) [nM] | further results
1 | CN1CCOC2(C1)CN(c1ccc3nc4n(c3c1)C13CCC(CN(CCOc5c(cnn5C)-c5cc(cn(C)c5=O)C(=O)N4)C1)C3)C2 (single isomer, unassigned) [Example A86A] | 2820 | 2120 | > 5000 |  |  |  |  |  |  |  |  |  |  |  |  |  |  |  |  |  | IC50 (EGFR wild type; [6]): > 5000 nM; IC50 (EGFR[T790M/C797S/L858R]; [7]): > 5000 nM; GI50 (PC-9; [8]): 989 nM; IC50 [1, 9]: > 5000 nM; IC50 (EGFR Exon19Del/T790M; [10]): > 5000 nM; IC50 (EGFR Exon19Del; [11]): 689 nM; GI50 [2, 12]: 50 nM; GI50 [2, 13]: 120 nM; GI50 [2, 14]: 181 nM; GI50 [2, 15]: 244 nM; GI50 [2, 16]: 264 nM; GI50 [2, 17]: 367 nM; GI50 [2, 18]: 123 nM; IC50 (EGFR (d746-750 C797S); [19]): 599 nM
2 | CN1CC2CC1CN2c1ccc2nc3n(c2c1)C12CCC(CN(CCOc4c(cnn4C)-c4cc(cn(C)c4=O)C(=O)N3)C1)C2 (single isomer, unassigned) [Example A105A] | 2770 | 2600 | > 5000 |  |  |  |  |  |  |  |  |  |  |  |  |  |  |  |  |  | IC50 (EGFR wild type; [6]): > 5000 nM; IC50 (EGFR[T790M/C797S/L858R]; [7]): > 5000 nM; GI50 (PC-9; [8]): 683 nM; IC50 [1, 9]: 4190 nM; IC50 (EGFR Exon19Del/T790M; [10]): > 5000 nM; IC50 (EGFR Exon19Del; [11]): 381 nM; GI50 [2, 12]: 100 nM; GI50 [2, 13]: 341 nM; GI50 [2, 14]: 617 nM; GI50 [2, 15]: 263 nM; GI50 [2, 16]: 652 nM; GI50 [2, 17]: 246 nM; GI50 [2, 18]: 363 nM; IC50 (EGFR (d746-750 C797S); [19]): 330 nM
3 | Cc1cc2cc(n1)-c1cnn(C)c1OCCN1CC3CCC(C3)(C1)n1c(nc3ccc(N4CC[C@H](N(C)C)C4)cc31)NC2=O (single isomer, unassigned) [Example B41A] |  |  |  | > 5000 | > 5000 | > 5000 | > 5000 | > 5000 | 2300 | 1300 | 3670 | > 5000 | 302 | 436 | 776 | 39 | 315 | 2790 | 348 | > 5000 | 
4 | Cc1cc2cc(n1)-c1cnn(C)c1OCCN1CC3CCC(C3)(C1)n1c(nc3ccc(N(C)CCCN(C)C)cc31)NC2=O (single isomer, unassigned) [Example B45A] |  |  |  | > 5000 | > 5000 | > 5000 | > 5000 | > 5000 | 2800 | 1290 | 3620 | > 5000 | 239 | 363 | 10000 | 48 | 10000 | 2850 | 10000 | > 5000 | 
5 | Cc1cc2cc(n1)-c1cnn(C)c1OCCN1CC3CCC(C3)(C1)n1c(nc3ccc(N4CCN(C(C)C)CC4)cc31)NC2=O (single isomer, unassigned) [Example B57A] |  |  |  | > 5000 | > 5000 | > 5000 | > 5000 | > 5000 | 941 | 792 | 1770 | > 5000 | 208 | 428 | 829 | 147 | 324 | 2000 | 612 | > 5000 | 
